Assay results as given in US12723063B2, “GIPR-agonist compounds” (Eli Lilly and Company, priority 2019, dated 2026).
*1 amine or outer side, *2 acyl side, *3 side chain or, on linkers, in order; H or OH if unused. Where a SMILES comes first, the peptide text is derived from it. Side-chain parts run from the residue outwards. [ ]: non-standard residue; d: D form. The star is where a group is joined. C20 diacid = O=C(O)CCCCCCCCCCCCCCCCCCC(=O)*; C18 diacid = O=C(O)CCCCCCCCCCCCCCCCC(=O)*; αMePhe(2-F) = C[C@](N)(Cc1ccccc1F)C(=O)O; γGlu = O=C(O)[C@H](CCC(=O)[*:2])N[*:1]; 4Pal = N[C@@H](Cc1ccncc1)C(=O)O; αMeL = CC(C)C[C@](C)(N)C(=O)O; Orn = NCCC[C@H](N)C(=O)O; AEEA = NCCOCCOCC(=O)O; Aib = CC(C)(N)C(=O)O

What was measured:
Assay in all cases: cAMP functional assay (HTRF) in HEK293 cells in presence of 0.1% casein
Type in all cases: cell-based
[1] = target: T1, human GLP-1 receptor (GLP-1R) (Homo sapiens, UniProt P43220); settings: HEK293 cells expressing human GLP-1R, geometric mean, read-out: hGLP1R cAMP Rel EC50 nM (SEM, n)
T1 construct: expressed in transfected cells; host or cells: HEK293
T1 sequence (P43220 24-463): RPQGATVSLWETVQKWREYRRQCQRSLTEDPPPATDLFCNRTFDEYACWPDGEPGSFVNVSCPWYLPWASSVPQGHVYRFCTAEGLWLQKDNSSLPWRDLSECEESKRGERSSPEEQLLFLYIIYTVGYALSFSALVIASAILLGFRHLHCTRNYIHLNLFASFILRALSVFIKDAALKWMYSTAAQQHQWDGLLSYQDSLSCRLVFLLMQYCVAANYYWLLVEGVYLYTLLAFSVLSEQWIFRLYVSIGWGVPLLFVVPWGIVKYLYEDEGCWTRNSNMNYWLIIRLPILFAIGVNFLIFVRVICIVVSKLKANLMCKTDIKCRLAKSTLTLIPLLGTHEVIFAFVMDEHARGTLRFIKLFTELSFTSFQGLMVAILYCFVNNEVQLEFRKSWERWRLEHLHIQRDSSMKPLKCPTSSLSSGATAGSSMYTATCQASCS

[2] = target: T2, human glucagon receptor (GcgR) (Homo sapiens, UniProt P47871); settings: HEK293 cells expressing human GcgR, geometric mean, read-out: hGcgR cAMP Rel EC50 nM (SEM, n)
T2 construct: expressed in transfected cells; host or cells: HEK293
T2 sequence (P47871 26-477): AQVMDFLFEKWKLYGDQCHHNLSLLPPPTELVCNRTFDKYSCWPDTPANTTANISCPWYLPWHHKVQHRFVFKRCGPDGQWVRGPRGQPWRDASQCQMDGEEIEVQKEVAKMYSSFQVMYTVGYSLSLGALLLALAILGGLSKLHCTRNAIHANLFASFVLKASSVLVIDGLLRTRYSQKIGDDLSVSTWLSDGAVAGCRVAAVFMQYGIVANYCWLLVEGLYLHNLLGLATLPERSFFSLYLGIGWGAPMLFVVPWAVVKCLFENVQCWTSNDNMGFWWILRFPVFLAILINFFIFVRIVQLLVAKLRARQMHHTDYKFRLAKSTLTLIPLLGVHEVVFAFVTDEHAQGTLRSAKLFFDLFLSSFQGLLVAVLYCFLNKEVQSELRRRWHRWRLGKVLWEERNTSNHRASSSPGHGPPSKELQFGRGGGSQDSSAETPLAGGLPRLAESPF

[3] = target: T3, human glucose-dependent insulinotropic peptide receptor (GIPR) (Homo sapiens, UniProt P48546); settings: HEK293 cells expressing human GIPR, geometric mean, read-out: hGIPR cAMP Rel EC50 nM (SEM, n)
T3 construct: expressed in transfected cells; host or cells: HEK293
T3 sequence (P48546 22-466): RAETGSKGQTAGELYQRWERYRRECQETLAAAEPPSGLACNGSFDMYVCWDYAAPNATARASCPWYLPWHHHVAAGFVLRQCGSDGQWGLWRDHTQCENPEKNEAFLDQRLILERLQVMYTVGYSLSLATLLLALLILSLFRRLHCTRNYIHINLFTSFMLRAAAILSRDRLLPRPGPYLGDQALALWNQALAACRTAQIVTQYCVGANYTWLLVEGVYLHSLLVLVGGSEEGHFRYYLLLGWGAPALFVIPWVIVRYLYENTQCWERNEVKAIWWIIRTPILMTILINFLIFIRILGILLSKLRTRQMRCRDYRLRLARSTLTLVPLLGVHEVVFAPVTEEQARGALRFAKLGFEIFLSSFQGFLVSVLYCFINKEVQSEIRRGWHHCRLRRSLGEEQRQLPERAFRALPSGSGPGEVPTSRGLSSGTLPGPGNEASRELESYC

SMILES | EC50 [1] | EC50 [2] | EC50 [3]
CC[C@H](C)[C@H](NC(=O)[C@H](CCCN)NC(=O)[C@H](CC(=O)O)NC(=O)[C@H](CC(C)C)NC(=O)[C@](C)(CC(C)C)NC(=O)[C@@H](NC(=O)[C@H](CO)NC(=O)[C@H](Cc1ccc(O)cc1)NC(=O)[C@H](CC(=O)O)NC(=O)[C@H](CO)NC(=O)[C@@H](NC(=O)[C@H](Cc1ccccc1)NC(=O)[C@@H](NC(=O)CNC(=O)[C@H](CCC(=O)O)NC(=O)C(C)(C)NC(=O)[C@@H](N)Cc1ccc(O)cc1)[C@@H](C)O)[C@@H](C)CC)[C@@H](C)CC)C(=O)N[C@@H](Cc1c[nH]cn1)C(=O)N[C@@H](CCC(N)=O)C(=O)NC(C)(C)C(=O)N[C@@H](CCC(=O)O)C(=O)N[C@@H](Cc1ccccc1)C(=O)N[C@H](C(=O)N[C@@H](CCC(=O)O)C(=O)N[C@@H](Cc1ccc(O)cc1)C(=O)N[C@@H](CCCCNC(=O)COCCOCCNC(=O)COCCOCCNC(=O)CC[C@H](NC(=O)CCCCCCCCCCCCCCCCCCC(=O)O)C(=O)O)C(=O)N[C@@H](CC(C)C)C(=O)N[C@@H](CCC(=O)O)C(=O)N[C@@H](CCC(N)=O)C(=O)NCC(=O)N1CCC[C@H]1C(=O)N[C@@H](CO)C(=O)N[C@@H](CO)C(=O)NCC(=O)N[C@@H](C)C(=O)N1CCC[C@H]1C(=O)N1CCC[C@H]1C(=O)N1CCC[C@H]1C(=O)N[C@@H](CO)C(N)=O)C(C)C [Example 106] (H-Y[Aib]EGTFISDYSI[αMeL]LD[Orn]IHQ[Aib]EFVEYK([AEEA-AEEA-γGlu-C20 diacid])LEQGPSSGAPPPS-NH2) | > 5000 nM | > 5000 nM | 0.014 nM
CC[C@H](C)[C@H](NC(=O)[C@H](CCCN)NC(=O)[C@H](CC(=O)O)NC(=O)[C@H](CC(C)C)NC(=O)[C@](C)(CC(C)C)NC(=O)[C@@H](NC(=O)[C@H](CO)NC(=O)[C@H](Cc1ccc(O)cc1)NC(=O)[C@H](CC(=O)O)NC(=O)[C@H](CO)NC(=O)[C@@H](NC(=O)[C@H](Cc1ccccc1)NC(=O)[C@@H](NC(=O)CNC(=O)[C@H](CCC(=O)O)NC(=O)C(C)(C)NC(=O)[C@@H](N)Cc1ccc(O)cc1)[C@@H](C)O)[C@@H](C)CC)[C@@H](C)CC)C(=O)N[C@@H](Cc1c[nH]cn1)C(=O)N[C@@H](CCC(N)=O)C(=O)NC(C)(C)C(=O)N[C@@H](CC(=O)O)C(=O)N[C@@H](Cc1ccccc1)C(=O)N[C@H](C(=O)N[C@@H](CCC(=O)O)C(=O)N[C@@H](Cc1ccc(O)cc1)C(=O)N[C@@H](CCCCNC(=O)COCCOCCNC(=O)COCCOCCNC(=O)CC[C@H](NC(=O)CCCCCCCCCCCCCCCCC(=O)O)C(=O)O)C(=O)N[C@@H](CC(C)C)C(=O)N[C@@H](CCC(=O)O)C(=O)NCC(=O)NCC(=O)N1CCC[C@H]1C(=O)N[C@@H](CO)C(=O)N[C@@H](CO)C(=O)NCC(=O)N[C@@H](C)C(=O)N1CCC[C@H]1C(=O)N1CCC[C@H]1C(=O)N1CCC[C@H]1C(=O)N[C@@H](CO)C(N)=O)C(C)C [Example 103] (H-Y[Aib]EGTFISDYSI[αMeL]LD[Orn]IHQ[Aib]DFVEYK([AEEA-AEEA-γGlu-C18 diacid])LEGGPSSGAPPPS-NH2) | > 5000 nM | > 5000 nM | 0.0129 nM
CC[C@H](C)[C@H](NC(=O)[C@H](CO)NC(=O)[C@H](Cc1ccc(O)cc1)NC(=O)[C@H](CC(=O)O)NC(=O)[C@H](CO)NC(=O)[C@@H](NC(=O)[C@](C)(Cc1ccccc1F)NC(=O)[C@@H](NC(=O)CNC(=O)[C@H](CCC(=O)O)NC(=O)C(C)(C)NC(=O)[C@@H](N)Cc1ccc(O)cc1)[C@@H](C)O)[C@@H](C)CC)C(=O)N[C@@H](C)C(=O)N[C@@H](CC(C)C)C(=O)N[C@@H](CC(=O)O)C(=O)N[C@@H](CCCCN)C(=O)N[C@H](C(=O)N[C@@H](Cc1c[nH]cn1)C(=O)N[C@@H](CCC(N)=O)C(=O)NC(C)(C)C(=O)N[C@@H](CCC(=O)O)C(=O)N[C@@H](Cc1ccccc1)C(=O)N[C@H](C(=O)N[C@@H](CC(N)=O)C(=O)N[C@@H](Cc1ccc(O)cc1)C(=O)N[C@@H](CCCCNC(=O)COCCOCCNC(=O)COCCOCCNC(=O)CC[C@H](NC(=O)CCCCCCCCCCCCCCCCC(=O)O)C(=O)O)C(=O)N[C@@H](CC(C)C)C(=O)N[C@@H](C)C(=O)NCC(=O)NCC(=O)N1CCC[C@H]1C(=O)N[C@@H](CO)C(=O)N[C@@H](CO)C(=O)NCC(=O)N[C@@H](C)C(=O)N1CCC[C@H]1C(=O)N1CCC[C@H]1C(=O)N1CCC[C@H]1C(=O)N[C@@H](CO)C(N)=O)C(C)C)[C@@H](C)CC [Example 94] (H-Y[Aib]EGT[αMePhe(2-F)]ISDYSIALDKIHQ[Aib]EFVNYK([AEEA-AEEA-γGlu-C18 diacid])LAGGPSSGAPPPS-NH2) | 1090 nM | > 5000 nM | 0.00436 nM
CC[C@H](C)[C@H](NC(=O)[C@H](Cc1ccccc1)NC(=O)[C@@H](NC(=O)CNC(=O)[C@H](CCC(=O)O)NC(=O)C(C)(C)NC(=O)[C@@H](N)Cc1ccc(O)cc1)[C@@H](C)O)C(=O)N[C@@H](CO)C(=O)N[C@@H](CC(=O)O)C(=O)N[C@@H](Cc1ccc(O)cc1)C(=O)N[C@@H](CO)C(=O)N[C@H](C(=O)N[C@@](C)(CC(C)C)C(=O)N[C@@H](CC(C)C)C(=O)N[C@@H](CC(=O)O)C(=O)N[C@@H](CCCCN)C(=O)N[C@@H](CCCCNC(=O)COCCOCCNC(=O)COCCOCCNC(=O)CC[C@H](NC(=O)CCCCCCCCCCCCCCCCCCC(=O)O)C(=O)O)C(=O)N[C@@H](Cc1c[nH]cn1)C(=O)N[C@@H](CCC(N)=O)C(=O)NC(C)(C)C(=O)N[C@@H](CC(=O)O)C(=O)N[C@@H](Cc1ccccc1)C(=O)N[C@H](C(=O)N[C@@H](CCC(=O)O)C(=O)N[C@@H](Cc1ccncc1)C(=O)N[C@@H](CC(C)C)C(=O)N[C@@H](CC(C)C)C(=O)N[C@@H](CCC(=O)O)C(=O)N[C@@H](C)C(=O)NCC(=O)N1CCC[C@H]1C(=O)N[C@@H](CO)C(=O)N[C@@H](CO)C(=O)NCC(=O)N[C@@H](C)C(=O)N1CCC[C@H]1C(=O)N1CCC[C@H]1C(=O)N1CCC[C@H]1C(=O)N[C@@H](CO)C(N)=O)C(C)C)[C@@H](C)CC [Example 3] | > 5000 nM | 1250 nM | 0.0178 nM
CC[C@H](C)[C@H](NC(=O)[C@H](CO)NC(=O)[C@H](Cc1ccc(O)cc1)NC(=O)[C@H](CC(=O)O)NC(=O)[C@H](CO)NC(=O)[C@@H](NC(=O)[C@](C)(Cc1ccccc1F)NC(=O)[C@@H](NC(=O)CNC(=O)[C@H](CCC(=O)O)NC(=O)C(C)(C)NC(=O)[C@@H](N)Cc1ccc(O)cc1)[C@@H](C)O)[C@@H](C)CC)C(=O)N[C@@H](C)C(=O)N[C@@H](CC(C)C)C(=O)N[C@@H](CC(=O)O)C(=O)N[C@@H](CCCCN)C(=O)N[C@H](C(=O)N[C@@H](Cc1c[nH]cn1)C(=O)N[C@@H](CCC(N)=O)C(=O)NC(C)(C)C(=O)N[C@@H](CC(=O)O)C(=O)N[C@@H](Cc1ccccc1)C(=O)N[C@H](C(=O)N[C@@H](CCC(=O)O)C(=O)N[C@@H](Cc1ccncc1)C(=O)N[C@@H](CCCCNC(=O)COCCOCCNC(=O)COCCOCCNC(=O)CC[C@H](NC(=O)CCCCCCCCCCCCCCCCCCC(=O)O)C(=O)O)C(=O)N[C@@H](CC(C)C)C(=O)N[C@@H](CCC(=O)O)C(=O)N[C@@H](CCC(N)=O)C(=O)NCC(=O)N1CCC[C@H]1C(=O)N[C@@H](CO)C(=O)N[C@@H](CO)C(=O)NCC(=O)N[C@@H](C)C(=O)N1CCC[C@H]1C(=O)N1CCC[C@H]1C(=O)N1CCC[C@H]1C(=O)N[C@@H](CO)C(N)=O)C(C)C)[C@@H](C)CC [Example 114] (H-Y[Aib]EGT[αMePhe(2-F)]ISDYSIALDKIHQ[Aib]DFVE[4Pal]K([AEEA-AEEA-γGlu-C20 diacid])LEQGPSSGAPPPS-NH2) | > 5000 nM | > 5000 nM | 0.0075 nM
CC[C@H](C)[C@H](NC(=O)[C@H](CO)NC(=O)[C@H](Cc1ccc(O)cc1)NC(=O)[C@H](CC(=O)O)NC(=O)[C@H](CO)NC(=O)[C@@H](NC(=O)[C@H](Cc1ccccc1)NC(=O)[C@@H](NC(=O)CNC(=O)[C@H](CCC(=O)O)NC(=O)[C@@H](C)NC(=O)[C@@H](N)Cc1ccc(O)cc1)[C@@H](C)O)[C@@H](C)CC)C(=O)N[C@@H](CC(C)C)C(=O)N[C@@H](CC(C)C)C(=O)N[C@@H](CC(=O)O)C(=O)N[C@@H](CCCCN)C(=O)N[C@@H](CCCCNC(=O)COCCOCCNC(=O)COCCOCCNC(=O)CC[C@H](NC(=O)CCCCCCCCCCCCCCCCC(=O)O)C(=O)O)C(=O)N[C@@H](C)C(=O)N[C@@H](CCC(N)=O)C(=O)NC(C)(C)C(=O)N[C@@H](CCC(=O)O)C(=O)N[C@@H](Cc1ccccc1)C(=O)N[C@H](C(=O)N[C@@H](CC(N)=O)C(=O)N[C@@H](Cc1c[nH]c2ccccc12)C(=O)N[C@@H](CC(C)C)C(=O)N[C@@H](CC(C)C)C(=O)N[C@@H](C)C(=O)N[C@@H](CCC(N)=O)C(=O)NCC(=O)N1CCC[C@H]1C(=O)N[C@@H](CO)C(=O)N[C@@H](CO)C(=O)NCC(=O)N[C@@H](C)C(=O)N1CCC[C@H]1C(=O)N1CCC[C@H]1C(=O)N1CCC[C@H]1C(=O)N[C@@H](CO)C(N)=O)C(C)C [Example 20] (H-Y[dA]EGTFISDYSILLDKK([AEEA-AEEA-γGlu-C18 diacid])AQ[Aib]EFVNWLLAQGPSSGAPPPS-NH2) | > 5000 nM | > 5000 nM | 0.00933 nM
